Several values for one entry are separate records, joined by “and”; a condition that tells them apart may be missing. Identical values can stand only once. Like-named read-outs stand apart in the source and are kept apart here.
Tests used:
[1] = system: A/Swine/1976/31 (H1N1) influenza virus; type: in vivo, mice; conditions: for Infectious virus titer (log10EID50/20 mg tissue): lung tissue
[2] = system: ascites Ehrlich carcinoma cells; assay: Apoptosis in ascites Ehrlich carcinoma cells of treated mice (cytofluorimetric analysis); type: in vivo
[3] = rat, in vivo
[4] = rat, in vivo; remark: listed apart in the source
[5] = system: Ehrlich ascites carcinoma; assay: Ehrlich ascites carcinoma in white mice, body weight dynamics
[6] = system: type 1 human immunodeficiency virus; assay: Antiviral activity on HIV-1 infected human cell model (cell staining, CPE, syncytium formation); conditions: for CPE/syncytia (+): number of pluses of the four-plus system; for Cell survival rate, % / Number of cells × 10^3/mL: HIV-1 infected cells
[7] = ascites cells having large sizes and granularity (tumor cells)
[8] = ascites cells of moderate size and granularity

Substance: N-fullerene tris(δ-aminocaproic acid) hydrate [Agent 1]
- Average lifetime (LD) ([1]; 30 mg/kg, Summary dose, n=30): 10.6 days
- Increase in LD ([1]; 30 mg/kg, Summary dose, n=30): 1.9 days
- Mortality rate, % ([1]; 30 mg/kg, Summary dose, n=30): 56.7%
- Number of survivors ([1]; 30 mg/kg, Summary dose, n=30): 13
- Average lifetime (LD) ([1]; 30 mg/kg, virus 1 LD50, n=15): 12.3 days
- Increase in LD ([1]; 30 mg/kg, virus 1 LD50, n=15): 1.7 days
- Mortality rate, % ([1]; 30 mg/kg, virus 1 LD50, n=15): 40.0%
- Number of survivors ([1]; 30 mg/kg, virus 1 LD50, n=15): 9
- Average lifetime (LD) ([1]; 30 mg/kg, virus 10 LD50, n=15): 8.9 days
- Increase in LD ([1]; 30 mg/kg, virus 10 LD50, n=15): 2.4 days
- Mortality rate, % ([1]; 30 mg/kg, virus 10 LD50, n=15): 73.3%
- Number of survivors ([1]; 30 mg/kg, virus 10 LD50, n=15): 4
- Average lifetime (LD) ([1]; 100 mg/kg, Summary dose, n=28): 11.8 days
- Increase in LD ([1]; 100 mg/kg, Summary dose, n=28): 3.1 days
- Mortality rate, % ([1]; 100 mg/kg, Summary dose, n=28): 39.3%
- Number of survivors ([1]; 100 mg/kg, Summary dose, n=28): 17
- Average lifetime (LD) ([1]; 100 mg/kg, virus 1 LD50, n=15): 13.1 days
- Increase in LD ([1]; 100 mg/kg, virus 1 LD50, n=15): 2.5 days
- Mortality rate, % ([1]; 100 mg/kg, virus 1 LD50, n=15): 26.7%
- Number of survivors ([1]; 100 mg/kg, virus 1 LD50, n=15): 11
- Average lifetime (LD) ([1]; 100 mg/kg, virus 10 LD50, n=13): 10.3 days
- Increase in LD ([1]; 100 mg/kg, virus 10 LD50, n=13): 3.7 days
- Mortality rate, % ([1]; 100 mg/kg, virus 10 LD50, n=13): 53.8%
- Number of survivors ([1]; 100 mg/kg, virus 10 LD50, n=13): 6
- Average lifetime (LD) ([1]; 300 mg/kg, Summary dose, n=28): 12.3 days
- Increase in LD ([1]; 300 mg/kg, Summary dose, n=28): 3.7 days
- Mortality rate, % ([1]; 300 mg/kg, Summary dose, n=28): 32.1%
- Number of survivors ([1]; 300 mg/kg, Summary dose, n=28): 19
- Size of chronic post-influenza pneumonia sites (% of the total surface area of the lungs) ([1]; 300 mg/kg, the lower of the virus doses used, day 15): 25 ± 7%
- Average lifetime (LD) ([1]; 300 mg/kg, virus 1 LD50, n=14): 13.6 days
- Increase in LD ([1]; 300 mg/kg, virus 1 LD50, n=14): 3.0 days
- Mortality rate, % ([1]; 300 mg/kg, virus 1 LD50, n=14): 21.4%
- Number of survivors ([1]; 300 mg/kg, virus 1 LD50, n=14): 11
- Average lifetime (LD) ([1]; 300 mg/kg, virus 10 LD50, n=14): 11.0 days
- Increase in LD ([1]; 300 mg/kg, virus 10 LD50, n=14): 4.4 days
- Mortality rate, % ([1]; 300 mg/kg, virus 10 LD50, n=14): 42.9%
- Number of survivors ([1]; 300 mg/kg, virus 10 LD50, n=14): 8
- Infectious virus titer (log10EID50/20 mg tissue) ([1]; 300 mg/kg, virus dose 1 LD50): 3.7 ± 0.3 log10EID50/20 mg tissue
- Infectious virus titer (log10EID50/20 mg tissue) ([1]; 300 mg/kg, virus dose 5 LD50): 4.1 ± 0.2 log10EID50/20 mg tissue
- AnV^+ 7AAD^+ (late apoptosis) [2, 7]: 69.5 ± 5.8%
- AnV^+ 7AAD^− (early apoptosis) [2, 7]: 0.1 ± 0.1%
- AnV^−7AAD^− (living cells) [2, 7]: 0.3 ± 0.1%
- AnV^−7AAD^+ (necrosis) ([2]; ascites cells having large sizes and granularity (tumor cells), hydrate): 30.2% and 30.2 ± 5.9%
- Percent amount of cells with the phenotype AnV^+ 7AAD^+ (late apoptosis) [2, 8]: 4.2 ± 2.4%
- Percent amount of cells with the phenotype AnV^+ 7AAD^− early apoptosis [2, 8]: 31.1 ± 10.4%
- Percent amount of cells with the phenotype AnV^−7AAD^+ (necrosis) [2, 8]: 0.4 ± 0.4%
- Percent amount of cells with the phenotype AnV^−7AAD^− (living cells) [2, 8]: 6.1 ± 6.2%
- Basophils, % ([3]; 3 mg/kg): 0%
- Erythrocytes, Mln/mm ([3]; 3 mg/kg): 6.5 ± 1.2 Mln/mm
- Young, % ([3]; 3 mg/kg): 0%
- Basophils, % ([3]; 9 mg/kg): 0%
- Erythrocytes, Mln/mm ([3]; 9 mg/kg): 6.4 ± 0.5 Mln/mm
- Young, % ([3]; 9 mg/kg): 0%
- Avg. erythr. volume., mcm ([3]; 20 mg/kg): 50.4 ± 1.5 mcm
- Basophils, % ([3]; 20 mg/kg): 0%
- Erythrocytes, Mln/mm ([3]; 20 mg/kg): 6.3 ± 0.8 Mln/mm
- Hematocrit, % ([3]; 20 mg/kg): 31.2 ± 3.5%
- Young, % ([3]; 20 mg/kg): 0%
- Glucose: number of animals with values going beyond the limits ([4]; 3 mg/kg): 0
- Leukocytes: number of animals with values going beyond the limits ([4]; 3 mg/kg): 3
- Protein: number of animals with values going beyond the limits ([4]; 9 mg/kg): 3
- Bilirubin: number of animals with values going beyond the limits ([4]; 20 mg/kg): 0
- Erythrocytes: number of animals with values going beyond the limits ([4]; 20 mg/kg): 5
- Glucose: number of animals with values going beyond the limits ([4]; 20 mg/kg): 0
- Nitrites: number of animals with values going beyond the limits ([4]; 20 mg/kg): 1
- Animal body weight ([5]; day 1 post tumor transplantation): 18.6 ± 2.3 g
- Animal body weight ([5]; day 3 post tumor transplantation): 18.8 ± 2.2 g
- Animal body weight ([5]; day 5 post tumor transplantation): 18.8 ± 1.9 g
- Animal body weight ([5]; day 8 post tumor transplantation): 19.4 ± 1.7 g
- Animal body weight ([5]; day 10 post tumor transplantation): 19.9 ± 1.7 g
- Animal body weight ([5]; day 13 post tumor transplantation): 20.4 ± 1.5 g
- Animal body weight ([5]; day 15 post tumor transplantation): 20.4 ± 1.4 g
- CPE/syncytia (+) ([6]; 0.5 mcg/mL): 4.0 +
- CPE/syncytia (+) ([6]; 1.0 mcg/mL): 2.0 +
- CPE/syncytia (+) ([6]; 5.0 mcg/mL): 0 +
- CPE/syncytia (+) ([6]; 10 mcg/mL): 0 +
- Cell survival rate, % ([6]; 0.5 mcg/mL): 27%
- Number of cells × 10^3/mL ([6]; 0.5 mcg/mL): 133.2 10^3/mL
- Cell survival rate, % ([6]; 1.0 mcg/mL): 75%
- Number of cells × 10^3/mL ([6]; 1.0 mcg/mL): 320.4 10^3/mL
- Cell survival rate, % ([6]; 5.0 mcg/mL): 92%
- Number of cells × 10^3/mL ([6]; 5.0 mcg/mL): 480.0 10^3/mL
- Cell survival rate, % ([6]; 10 mcg/mL): 95%
- Number of cells × 10^3/mL ([6]; 10 mcg/mL): 579.3 10^3/mL
- EC50 (50% effective concentration) ([6]; HIV-1 infected human cells): 5.0 µg/mL
